Assay results from US20020049157A1, “Use of proteasome inhibitors for treating cancer, inflammation, autoimmune disease, graft rejection and septic shock” (priority 1998, published 2002).
Read-outs that look alike come from different tables or passages of the source. Peptide text beside a SMILES is read from it. * marks the point of attachment. Cbz = O=C(OCc1ccccc1)*; CH2F = FC*

What was measured:
[1] = system: Streptococcus cell wall-induced polyarthritis; conditions: in vivo, cited from earlier work
heart allograft = type: in vivo, mouse
Procedure: BALB/c mice (H-2^d) were used as heart donors and C57BL/6 mice (H-2^b) as recipients. […] Group 2 was given 0.65 mg/kg/day; group 3 was given 1.0 mg/kg/day for 4 days, and the dose was then reduced to 0.5 mg/kg/day for 12 days. The graft survival days, mean survival time (MST) and the p value (unpaired Student's test) compared with the control group was presented.
The applicant then used DPBA in treating allograft rejection in a mouse model. BALB/c (H-2^d) mice were used as donors and C57BL/6 (H-2^b) was used as recipients. Heterotropic heart transplantation was performed as described in our previous publication (Chen et al., 1996, supra). […] With this regimen, the MST is more than 22.8+9.8 days and has a tendency of being better than the first group.
Proteasome inhibitors when added at the late G1 phase can suppress proliferation and even induce apoptosis of the activated T cells. […] This possibility was tested in mouse heart transplantation model. The recipients were given no immunosuppressants for 72 h after the transplantation to allow the rejection response to proceed. […] This new drug will be especially useful in patients who are resistant to commonly used immunosuppressants such as CyA, azathioprine, and glucocorticoids.

islet allograft = assay: Mouse islet allograft in streptozocin-induced diabetes; type: in vivo; conditions: 1 mg/kg/day i.p. for 16 days, then 0.5 mg/kg twice a week until day 60
Procedure: C57BL/6 mice were treated with 250 mg/kg streptozocin and used as islet graft recipients when their blood glucose reached […] from BALB/c mice were isolated after collagenase digestion followed by Ficoll gradient separation. The islets were cultured overnight, and transplanted into the peritoneal cavity of the diabetic C57BL/6 recipients (500-600 islets/recipient). […] The blood glucose of the mice was measured daily and the means+SDs are shown. […] The mice were sacrificed on day 60, or when their blood glucose reached […].

[2] = system: BALB/c mouse spleen cells; assay: Anti-CD3-stimulated T cell proliferation (3H-thymidine); type: cell-based; conditions: anti-CD3 50 ng/ml; pulsed 48 h, harvested 64 h
Procedure: The cells were pulsed with ^3H-thymidine at 48 h and harvested at 64 h after the culture.

proteasome = conditions: for repression of chymotrypsin-like activity in the PBMC: RAPA at 10 nM
Procedure: Human PBMC were cultured in the absence or presence of 2 μg/ml PHA or 10 nM RAPA for 16 h-70 h as indicated. The cells were then harvested, and the chymotrypsin-like activity of whole cells lysates was assayed in the absence or presence of 20 μM proteasome inhibitor LAC. The data are presented as arbitrary units of fluorescence intensity per 20 μg lysate protein. The experiments were repeated three times and a representative one is shown. Samples are in duplicate and the mean±SD is shown. (A) Total chymotrypsin-like activity in the lysate of PBMC. (B) Lactacystin-inhibitable chymotrypsin-like activity in the lysate of 70 h PBMC. Nine micrograms of 20S proteasome were used as positive controls for the inhibitory effect of LAC at 10 μM and 20 μM. LAC was always added to the lysates during the proteinase assay 15 min before the addition of the substrate. The solid bars represent the activity in the presence of LAC. The net proteasome activities are calculated as the total activity minus the remaining activity after the LAC addition.
PBMC lysates were assayed for their proteinase activity at pH 8.2 which favors the proteasome activity, using a chymotrypsin substrate as a representative parameter.
PBMC were cultured with or without PHA (2 μg/ml) and RAPA (10 nM). After 16 h-70 h, the cells were harvested and sonicated in 300 μl PBS on ice for 40 sec. Twenty micrograms of protein per sample from the cleared lysates were supplemented to 100 μl with 0.1 M Tris buffer (pH 8.2). A proteasome-specific inhibitor lactacystin (Omura et al., 1991, supra; Fentenay et al., 1995, supra) was added at a final concentration of 10 nM in some samples as indicated. The samples were incubated on ice for 15 min, and fluorogenic chymotrypsin substrate sLLVY-MCA was then added at a final concentration of 10 nM. The 20S proteasome, which was prepared as previously described (Friguet et al, 1994, J. Biol. Chem. 269:21639), was used as a positive control in place of cell lysates. The samples were incubated at 37° C. for 15 min and the reaction was terminated by adding 4 μl 2.5 M HCl. The samples were then diluted to 2 ml with 0.1 M Tris pH8.2, and measured for their fluorescent intensity by a PTI fluorometer (Photo Technology International, South Brunswick, N.J.). The excitation wavelength was 380 nm, and the emission wavelength 440 mn.

Jurkat and Namalwa cells = assay: Apoptosis induction in Jurkat and Namalwa cells; type: cell-based
Jurkat cells [3] = assay: DNA fragmentation (DNA laddering) in Jurkat cells; type: cell-based; conditions: LAC 6 μM; caspase inhibitor 0.4 μM to 33.3 μM; 6 h
Procedure: Tonsillar T cells (A, B, and D) and Jurkat cells (C and E) were treated with LAC (10 μM for T cells and 6 μM for Jurkat cells). LAC was added at the beginning of the culture or 40 h after T cell activation as indicated. The cells were harvested at the time points as shown. They were evaluated for their viability with trypan blue exclusion (A, B, and C), and for their mode of cell death according to DNA fragmentation (D and E).
Jurkat cells were treated with LAC (6 μM) in the absence or presence of different concentrations of zVAD.fms (0.4 μM to 33.3 μM) for 6 h. The cells were harvested and their DNA was analyzed by a DNA fragmentation assay according to DNA laddering.
We next employed DNA laddering to study the mode of cell death caused by LAC, and the result of this experiment also reflected the degree of cell death after different treatments. […] After 24 h of LAC treatment, the ladders became less discrete, and this probably reflected further DNA breakdown.
The assay was performed according to a protocol described by Liu et al (Liu et al., 1997, Cell. 89:175) with some modifications. Briefly, 2-6 million cells were re-suspended in 50 μl PBS followed by 300 μl lysis buffer (100 mM Tris-HCl, pH 8.0, 5 mM EDTA, 0.2 M NaCl. 0.2% w/v SDS, and 0.2 mg/ml proteinase K). After overnight incubation at 37° C., 350 μl of 3M NaCl was added to the mixture and cell debris was removed by centrifugation at 13000 g for 20 min at room temperature. DNA in the supernatant was precipitated with an equal volume of 100% ethanol. The pellet was washed with cold 70% ethanol and then dissolved in 20 μl of TE containing 0.2 mg/ml RNase A. After incubation at 37° C. for 2 h, the DNA was resolved on 2% agarose gel and visualized with ethidium bromide staining.

Jurkat cells [4] = assay: Respiration (O2 consumption) of Jurkat cells, oxygen electrode; type: cell-based; conditions: LAC for 4 h; 100 μM Cytochrome C
Source text: The function of Complex I of digitonin (Dig)-permeated Jurkat cells was blocked by rotenone (Rot), and the respiration was resumed by adding succinate (Suc), which provides electrons to Complex II directly and thus bypasses Complex I. The maximal respiration was achieved by adding CCCP (carbonyl cyanide m-chlorophenylhydrazone), which uncouples the oxidation and phosphorylation. The respiration could be blocked by antimycin A (Ant), which inhibits […]. Curves 1 and 6 represent positive controls of rat kidney mitochondria. Curves 2 and 5 represent normals untreated Jurkat cells. Curves 3 and 4 represent Jurkat cells treated with lactacystin (6 μM) for 2 h and 4 h, respectively.
Complex III in the respiration chain was blocked at Complex III antimycin (Ant), and the electron flow was resumed by addiind ascorbate (Asc) and TMPD (tetramethyl-p-phenyl-enediamine).
The assay system is identical to that described in FIG. 16. Jurkat cells were treated with LAC for 4 h (curve 3). The decoupling reagent used in this experiment to achieve maximal respiration is FCCP (carbonylcyanide-p-trifluoromethoxyphenylhydrazone).
The Jurkat Cells (JC) (30×10^6/ml) or rat kidney proximal tubules mitochondria (RKM) (0.5 mg of protein/ml) were incubated in 1 ml measuring chamber at 37° C. in a respiration buffer containing 200 mM sucrose, 5 mM MgCl2, 5 mM KH2PO4, and 30 mM HEPES-Tris (pH 7.5). During respiration experiments following substrates and inhibitors were used: 0.005% Digitonine (Dig); 10 mM Succinate (Suc); 1 mM Ascorbate (Asc); 0.4 mM tetramethyl-p- phenylenediamine (TMPD); 1 μM CCCP, 1 μM FCCP; 0.1 μM Rotenone (Rot); 50 nM Antimycin A (Anti); 1 mM KCN; 100 μM Cytochrome C (Cyt C). The respiration rate of the Jurkat Cells and mitochondria was measured polarographically with a Clarke oxygen electrode (Yellow Springs Instruments, Yellow Springs, Ohio, U.S.A.) using 1 ml thermojacketed chamber. Oxygen concentration was calibrated with air-saturated buffer using Hypoxanthine—Xanthine Oxidase—Catalase system (“chemical zero”). Oxygen consumption was continuously recorded using a “MacLab/8” (Analog Digital Instruments, U.S.A.) connected to a Macintosh SE computer and the MacLab Chart v.3.3.4 software. Rates of oxygen consumption are expressed as ng-atoms of oxygen/min.

For `CC(C)C[C@H](NC(=O)[C@H](Cc1ccccc1)NC(=O)c1cnccn1)B(O)O` [DPBA, Pyz-Phe-boroLeu], the toxicity ([1]; rat) is listed as “without apparent toxicity”, the “inhibition of Streptococcus cell wall-induced polyarthritis” value ([1]; rats) is listed as “effectively inhibit” and the “MST (mean survival time of heart allograft)” value (heart allograft; 0.65 mg/kg/day i.p. for 16 days) is listed as “more than 26.2+13 days”. For the same compound, the “MST (mean survival time of heart allograft)” value (heart allograft; 1 mg/kg/day i.p. day 1-4, then 0.5 mg/kg/day i.p. day 5-16) was “more than 22.8+9.8 days”, the “MST (ongoing rejection)” value (heart allograft; 1 mg/kg/day i.p. for 4 days starting on day 3) was “more than 13.2+1.78 days” and the “appearance of the mice during or after the drug administration” value (heart allograft; mouse, in vivo, ip) was “appear healthy”. The “graft survival (ongoing rejection)” value (heart allograft; short-term treatment between day 3 and 6) was “more than 13 days”, the “duration of normal function of allogeneic islet graft” value (islet allograft) was “more than 60 days” and the “glucose elevation consequent to islet rejection” value (islet allograft) was “inhibits the glucose elevation consequent to islet rejection”. It also gave an IC50 [2] of about 18 nM.
In the case of `CO[C@H]1C[C@@H]2CC[C@@H](C)[C@@](O)(O2)C(=O)C(=O)N2CCCC[C@H]2C(=O)O[C@H]([C@H](C)C[C@@H]2CC[C@@H](O)[C@H](OC)C2)CC(=O)[C@H](C)/C=C(\C)[C@@H](O)[C@@H](OC)C(=O)[C@H](C)C[C@H](C)/C=C/C=C/C=C/1C` [RAPA, Rapamycin], the net proteasome activity (proteasome; PHA plus RAPA-treated cells, 70 h, total minus activity remaining after LAC) is reported as 113.2×10^3 units/20 μg protein, the “inhibition of the augmented proteasome activity in the PHA-treated PBMC” value (proteasome; RAPA 10 nM, 70 h) is reported as 44.7% and the “inhibition of the total proteasome activity in the PHA-treated PBMC” value (proteasome; RAPA 10 nM, 70 h) is reported as 33.6%. The “repression of chymotrypsin-like activity in the PBMC” value (proteasome; 40 h after PHA stimulation) was 23.1% and the “repression of chymotrypsin-like activity in the PBMC” value (proteasome; 70 h after PHA stimulation) was 41.1%.
In the case of `CN[C@@H]1C[C@H]2O[C@@](C)([C@@H]1OC)n1c3ccccc3c3c4c(c5c6ccccc6n2c5c31)C(=O)NC4` [staurosporine], the induction of apoptosis (Jurkat and Namalwa cells) is reported as “could equally induce apoptosis”.
With `COC(=O)C[C@H](NC(=O)[C@H](C)NC(=O)[C@@H](NC(=O)OCc1ccccc1)C(C)C)C(=O)CF` [zVAD.fms, zVAD.fmk] (Cbz-Val-Ala-Asp(OMe)-CH2F) the “effect on LAC-induced DNA fragmentation” value (Jurkat cells [3]) was “inhibitory effect on DNA fragmentation that is concentration responsive”.
For cytochrome c, the “respiration of LAC-treated cells after adding exogenous cytochrome c” value (Jurkat cells [4]) was “the respiration resumed to a rate similar to that of untreated Jurkat cells and mitochondria”.
